Reference: US10703743B2 (priority 2010, dated 2020)
pIC50: −log10 of the molar value. Like-named read-outs stand apart in the source and are kept apart here.

Legend:
gp120-CD4 interaction = gp120-CD4 interaction (Human immunodeficiency virus type 1 group M subtype B, UniProt P03375); experiment: biochemical; format: binding, HIV-1
MT-2 = MT-2 activity; format: cell-based; conditions: Homo sapiens, MT2
HIV-1 isolate BaL = experiment: viral inhibition assay, HIV-1 isolate BaL; format: cell-based
Description: (§1) In this assay, viral inhibition was determined by HIV Tat-induced luciferase (Luc) reporter gene expression after a single round of virus infection in TZM-b1 cells according to the method of Platt, et al., J. Virol. 1998, 72, 2855-64.

HIV-1 isolate ADA = experiment: viral inhibition assay, HIV-1 isolate ADA; format: cell-based
Description: as §1

HIV-1 isolate JR-FL = experiment: viral inhibition assay, HIV-1 isolate JR-FL; format: cell-based; conditions: Human immunodeficiency virus 1, TZM-b1, read-out: IC50 JR-FL
Description: as §1

HIV-1 isolate SF162 = experiment: viral inhibition assay, HIV-1 isolate SF162; format: cell-based; conditions: Human immunodeficiency virus 1, TZM-b1, read-out: IC50 SF162
Description: as §1

HIV-1 isolate HXBc2 = experiment: viral inhibition assay, HIV-1 isolate HXBc2; format: cell-based; conditions: Human immunodeficiency virus 1, TZM-b1, read-out: IC50 HXBc2
Description: as §1

SMILES | pIC50 (gp120-CD4 interaction) | pIC50 (MT-2) | other results
COc1ccc(-c2ccc(CNC(=O)COCCOCCOCCOCCn3cc(COCCOCCOCCOCCNc4ccc([N+](=O)[O-])cc4[N+](=O)[O-])nn3)o2)c2[nH]cc(C(=O)C(=O)N3CCN(C(=O)c4cc(O)cc(O)c4)CC3)c12 | 6.13 | 6.64 | –
COc1ccc(-c2ccc(CNC(=O)COCCOCCOCCOCCn3cc(COCCOCCOCCOCCNc4ccc([N+](=O)[O-])cc4[N+](=O)[O-])nn3)o2)c2[nH]cc(C(=O)C(=O)N3CCN(C(=O)c4ccncc4)CC3)c12 | 5.33 | 5.03 | –
COc1ccc(-c2ccc(CNC(=O)COCCOCCOCCOCCn3cc(COCCOCCOCCOCCNc4ccc([N+](=O)[O-])cc4[N+](=O)[O-])nn3)o2)c2[nH]cc(C(=O)C(=O)N3CCN(C(=O)c4ccc(C)cc4)CC3)c12 | 6.35 | 7.60 | –
COc1ccc(-c2ccc(CNC(=O)COCCOCCOCCOCCn3cc(COCCOCCOCCOCCNc4ccc([N+](=O)[O-])cc4[N+](=O)[O-])nn3)o2)c2[nH]cc(C(=O)C(=O)N3CCN(C(=O)c4ccc(C(C)C)cc4)CC3)c12 | 6.02 | – | –
COc1ccc(-c2ccc(CNC(=O)COCCOCCOCCOCCn3cc(COCCOCCOCCOCCNc4ccc([N+](=O)[O-])cc4[N+](=O)[O-])nn3)o2)c2[nH]cc(C(=O)C(=O)N3CCN(C(=O)c4ccc(O)cc4)CC3)c12 | 6.62 | 7.05 | –
COc1ccnc2[nH]cc(C(=O)C(=O)N3CCN(C(=O)c4ccccc4)C[C@H]3C)c12 [BMS-378806, 4-benzoyl-1-(2-(4-methoxy-1H-pyrrolo(2,3-b)pyridin-3-yl)-1,2-dioxoethyl)-2-methyl-, (2R)-Piperazine, reference compound] | – | – | IC50 BaL (HIV-1 isolate BaL; HIV Tat-induced luciferase reporter gene expression after a single round of virus infection in TZM-b1 cells): dnc; pIC50 (HIV-1 isolate ADA; Human immunodeficiency virus 1, HIV Tat-induced luciferase reporter gene expression after a single round of virus infection in TZM-b1 cells, read-out: IC50 ADA): 6.46; pIC50 (HIV-1 isolate JR-FL): 5.59; pIC50 (HIV-1 isolate SF162): 6.44; pIC50 (HIV-1 isolate HXBc2): 7.50
COc1ccc(-c2ccc(CNC(=O)COCCOCCOCCOCCn3cc(COCCOCCOCCOCCNc4ccc([N+](=O)[O-])cc4[N+](=O)[O-])nn3)o2)c2[nH]cc(C(=O)C(=O)N3CCN(C(=O)c4ccccc4O)CC3)c12 | 6.31 | 6.70 | –
COc1ccc(-c2ccc(CNC(=O)COCCOCCOCCOCCn3cc(COCCOCCOCCOCCNc4ccc([N+](=O)[O-])cc4[N+](=O)[O-])nn3)o2)c2[nH]cc(C(=O)C(=O)N3CCN(C(=O)c4cccnc4)CC3)c12 | 5.43 | 5.89 | –
COc1ccc(-c2ccc(CNC(=O)COCCOCCOCCOCCOCCOCCn3cc(COCCOCCOCCOCCNc4ccc([N+](=O)[O-])cc4[N+](=O)[O-])nn3)o2)c2[nH]cc(C(=O)C(=O)N3CCN(C(=O)c4ccccc4)CC3)c12 [C5-furan] | – | – | pIC50 (HIV-1 isolate BaL; Human immunodeficiency virus 1, BAL, TZM-b1, read-out: IC50 BaL): 7.46; pIC50 (HIV-1 isolate ADA; Human immunodeficiency virus 1, TZM-b1, read-out: IC50 ADA): 8.20; pIC50 (HIV-1 isolate JR-FL): 9.14; pIC50 (HIV-1 isolate SF162): 6.51; pIC50 (HIV-1 isolate HXBc2): 7.99
COc1ccc(-c2ccc(CNC(=O)COCCOCCOCCOCCn3cc(COCCOCCOCCOCCNc4ccc([N+](=O)[O-])cc4[N+](=O)[O-])nn3)o2)c2[nH]cc(C(=O)C(=O)N3CCN(C(=O)c4ccccc4C)CC3)c12 | 5.29 | ~4.60 | –
COc1ccc(-c2ccc(CNC(=O)COCCOCCOCCOCCn3cc(COCCOCCOCCOCCNc4ccc([N+](=O)[O-])cc4[N+](=O)[O-])nn3)o2)c2[nH]cc(C(=O)C(=O)N3CCN(C(=O)c4cccc(O)c4)CC3)c12 | 6.70 | 7.05 | –
COc1ccc(-c2ccc(CNC(=O)COCCOCCOCCOCCn3cc(COCCOCCOCCOCCNc4ccc([N+](=O)[O-])cc4[N+](=O)[O-])nn3)o2)c2[nH]cc(C(=O)C(=O)N3CCN(C(=O)c4ccc(CO)cc4)CC3)c12 | 6.37 | ~6.00 | –
COc1ccc(-c2ccc(CNC(=O)COCCOCCOCCOCCn3cc(COCCOCCOCCOCCNc4ccc([N+](=O)[O-])cc4[N+](=O)[O-])nn3)o2)c2[nH]cc(C(=O)C(=O)N3CCN(C(=O)c4ccccn4)CC3)c12 | 6.21 | 7.32 | –
COc1ccc(-c2ccc(CNC(=O)COCCOCCOCCOCCn3cc(COCCOCCOCCOCCNc4ccc([N+](=O)[O-])cc4[N+](=O)[O-])nn3)o2)c2[nH]cc(C(=O)C(=O)N3CCN(C(=O)c4cccc(C)c4)CC3)c12 | 5.87 | ~6.22 | –
COc1ccc(-c2ccc(CNC(=O)COCCOCCOCCOCCn3cc(COCCOCCOCCOCCNc4ccc([N+](=O)[O-])cc4[N+](=O)[O-])nn3)o2)c2[nH]cc(C(=O)C(=O)N3CCN(C(=O)c4ccc5ccccc5c4)CC3)c12 | 5.28 | ~5.30 | –
CCc1ccc(C(=O)N2CCN(C(=O)C(=O)c3c[nH]c4c(-c5ccc(CNC(=O)COCCOCCOCCOCCn6cc(COCCOCCOCCOCCNc7ccc([N+](=O)[O-])cc7[N+](=O)[O-])nn6)o5)ccc(OC)c34)CC2)cc1 | 6.33 | ~6.22 | –
